Where a name gives a salt, the structure may show the parent alone.
Target: T1, human recombinant Btk (Homo sapiens, UniProt Q06187)
T1 construct: purchased Invitrogen Corporation
Test: Human Recombinant Btk Enzyme Assay
Type: biochemical
Details: human recombinant Btk 1 nM, ATP 20 μM, 60 min at room temperature; read-out: IC50 for Inhibition of Btk

T1 sequence (Q06187 whole entry): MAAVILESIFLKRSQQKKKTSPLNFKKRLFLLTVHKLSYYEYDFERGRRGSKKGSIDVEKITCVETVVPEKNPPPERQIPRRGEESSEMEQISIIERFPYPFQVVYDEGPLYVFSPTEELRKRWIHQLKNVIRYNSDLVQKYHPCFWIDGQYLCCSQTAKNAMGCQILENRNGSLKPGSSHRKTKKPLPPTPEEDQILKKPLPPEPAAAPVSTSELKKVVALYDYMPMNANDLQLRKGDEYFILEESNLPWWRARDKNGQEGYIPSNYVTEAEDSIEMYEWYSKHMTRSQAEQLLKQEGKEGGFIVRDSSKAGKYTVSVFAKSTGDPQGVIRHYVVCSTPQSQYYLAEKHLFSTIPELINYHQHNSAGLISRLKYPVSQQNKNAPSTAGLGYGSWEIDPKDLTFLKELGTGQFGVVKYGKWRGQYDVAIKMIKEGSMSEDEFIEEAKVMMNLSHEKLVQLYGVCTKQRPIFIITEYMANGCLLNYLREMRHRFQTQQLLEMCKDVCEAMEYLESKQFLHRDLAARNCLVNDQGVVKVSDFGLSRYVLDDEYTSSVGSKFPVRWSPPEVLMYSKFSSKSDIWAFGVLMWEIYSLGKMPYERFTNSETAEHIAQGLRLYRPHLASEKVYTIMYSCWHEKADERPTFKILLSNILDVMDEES

`Cc1c(-c2ccc(C(N)=O)c3[nH]c4c(c23)CCC(C(C)(C)O)C4)cccc1-n1c(C)nc2ccccc2c1=O` (stereo not shown) [Example 76-10, 2-(2-hydroxypropan-2-yl)-5-(2-methyl-3-(2-methyl-4-oxoquinazolin-3(4H)-yl)phenyl)-2,3,4,9-tetrahydro-1H-carbazole-8-carboxamide] and `Cc1c(-c2ccc(C(N)=O)c3[nH]c4c(c23)CCC(C(=O)NCCCN(C)C)C4)cccc1N1Cc2ccccc2C1=O` (stereo not shown) [Example 3-101] are the same in IC50: 18 nM for the first, 18 nM for the second.

Going from `Cc1ccc2c(c1)CN(c1cncc(-c3ccc(C(N)=O)c4[nH]c5cc(NC(C)C)ccc5c34)c1C)C2=O` [Example 66-2, 7-(isopropylamino)-4-(4-methyl-5-(5-methyl-1-oxoisoindolin-2-yl)pyridin-3-yl)-9H-carbazole-1-carboxamide] to `Cc1c(-c2ccc(C(N)=O)c3[nH]c4cc(C(C)(C)O)ccc4c23)cccc1N1Cc2ccncc2C1=O` [Example 76-18], the IC50 falls from 16 nM to 1.8 nM (8.9-fold).

Compared with `CC(=O)NCc1ccc2c(c1)[nH]c1c(C(N)=O)ccc(-c3cccc(N4Cc5ccc(F)cc5C4=O)c3C)c12` [Example 38-2, 7-(acetamidomethyl)-4-(3-(6-fluoro-1-oxoisoindolin-2-yl)-2-methylphenyl)-9H-carbazole-1-carboxamide], `Cc1c(-c2ccc(C(N)=O)c3[nH]c4cc(C(O)CO)ccc4c23)cccc1N1Cc2ccc(F)cc2C1=O` (stereo not shown) [Example 70-10] is 2.1-fold lower in IC50: 2.1 nM for the first, 1 nM for the second. The second is the more potent here.

`CN1CCN(C(=O)c2ccc3c(c2)[nH]c2c(C(N)=O)ccc(-c4ccccc4)c23)CC1` [Example 3-45] and `CN1CCN(C(=O)c2ccc3c(c2)[nH]c2c(C(N)=O)ccc(-c4ccccc4Cl)c23)CC1` [Example 3-69] are within 1.5-fold of each other in IC50: 16 nM for the first, 15 nM for the second.

`Cc1c(NC(=O)CC(C)C)cccc1-c1ccc(C(N)=O)c2[nH]c3cc(C(=O)N4CCN(C)CC4)ccc3c12` [Example 5-62, 4-(2-methyl-3-(3-methylbutanamido)phenyl)-7-(4-methylpiperazine-1-carbonyl)-9H-carbazole-1-carboxamide (prepared as the TFA salt)] and `Cc1c(NC(=O)c2nc(C(C)C)cs2)cccc1-c1ccc(C(N)=O)c2[nH]c3cc(C(=O)N4CCN(C)CC4)ccc3c12` [Example 5-16] are within 1.5-fold of each other in IC50: 17 nM for the first, 18 nM for the second.

Going from `CN1CCN(C(=O)c2ccc3c(c2)[nH]c2c(C(N)=O)ccc(-c4c[nH]c5cc(-c6ccc(F)cc6)ccc45)c23)CC1` [Example 3-83] to `CN1CCN(C(=O)c2ccc3c(c2)[nH]c2c(C(N)=O)ccc(-c4cc(NC(=O)c5ccc(F)cc5)ccn4)c23)CC1` [Example 2-43, 4-(4-(4-fluorobenzamido)pyridin-2-yl)-7-(4-methylpiperazine-1-carbonyl)-9H-carbazole-1-carboxamide], the IC50 falls from 940 nM to 520 nM (1.8-fold).

Going from `Cc1c(-c2ccc(C(N)=O)c3[nH]c4cc(C(=O)N5CCN(C)CC5)ccc4c23)cccc1N(C(C)C)S(C)(=O)=O` (single isomer, unassigned) [Example 10-2, 4-(3-(N-isopropylmethylsulfonamido)-2-methylphenyl)-7-(4-methylpiperazine-1-carbonyl)-9H-carbazole-1-carboxamide] to `Cc1c(-c2ccc(C(N)=O)c3[nH]c4cc(C(=O)N5CCN(C)CC5)ccc4c23)cccc1N1CCCS1(=O)=O` [Example 12-1, 4-(3-(1,1-dioxoisothiazolidin-2-yl)-2-methylphenyl)-7-(4-methylpiperazine-1-carbonyl)-9H-carbazole-1-carboxamide], the IC50 falls from 4500 nM to 18 nM (250-fold).

`Cc1c(N)cccc1-c1ccc(C(N)=O)c2[nH]c3c(c12)CCC(NC(=O)OCc1ccccc1)C3` (stereo not shown) [Example 51-1, benzyl 5-(3-amino-2-methylphenyl)-8-carbamoyl-2,3,4,9-tetrahydro-1H-carbazol-2-ylcarbamate] and `Cc1c(NC(=O)c2ccccn2)cccc1-c1ccc(C(N)=O)c2[nH]c3c(c12)CCC(NC(=O)OCc1ccccc1)C3` (stereo not shown) [Example 52-2, benzyl 8-carbamoyl-5-(2-methyl-3-(picolinamido)phenyl)-2,3,4,9-tetrahydro-1H-carbazol-2-ylcarbamate] are within 1.5-fold of each other in IC50: 400 nM for the first, 520 nM for the second.

`Cc1c(-c2ccc(C(N)=O)c3[nH]c4cc(CN)ccc4c23)cccc1N1Cc2ccccc2C1=O` [Example 33-1, 7-(aminomethyl)-4-(2-methyl-3-(1-oxoisoindolin-2-yl)phenyl)-9H-carbazole-1-carboxamide] and `Cc1c(-c2ccc(C(N)=O)c3[nH]c4cc(C(O)CO)ccc4c23)cccc1N1Cc2ccccc2C1=O` (racemic) [Example 70-3, 7-((RS)-1,2-dihydroxyethyl)-4-(2-methyl-3-(1-oxoisoindolin-2-yl)phenyl)-9H-carbazole-1-carboxamide] are within 1.5-fold of each other in IC50: 1.9 nM for the first, 2.3 nM for the second.

Going from `NC(=O)c1ccc(-c2ccccc2F)c2c1[nH]c1ccc(Oc3ccccc3)cc12` [Example 48-2] to `NC(=O)c1ccc(-c2ccccc2F)c2c3c([nH]c12)CCC(Oc1ccccc1)C3` (stereo not shown) [Example 47-2, 5-(2-fluorophenyl)-3-phenoxy-2,3,4,9-tetrahydro-1H-carbazole-8-carboxamide], the IC50 rises from 1700 nM to 4200 nM (2.5-fold).

Compared with `Cc1c(NC(=O)c2ccc(F)cc2)cccc1-c1ccc(C(N)=O)c2[nH]c3cc(NC(=O)CCN4CCOCC4)ccc3c12` [Example 57-18], `Cc1c(NC(=O)c2ccc(F)cc2)cccc1-c1ccc(C(N)=O)c2[nH]c3cc(C(N)=O)ccc3c12` [Example 24-1, 4-(3-(4-fluorobenzamido)-2-methylphenyl)-9H-carbazole-1,7-dicarboxamide] is 7.7-fold higher in IC50: 2.2 nM for the first, 17 nM for the second. The first is the more potent here.

`CN1CCN(C(=O)c2ccc3c(c2)[nH]c2c(C(N)=O)ccc(-c4cccc5cccnc45)c23)CC1` [Example 3-19] and `CN1CCN(C(=O)c2ccc3c(c2)[nH]c2c(C(N)=O)ccc(-c4nccc5ccccc45)c23)CC1` [Example 2-2, 4-(isoquinolin-1-yl)-7-(4-methylpiperazine-1-carbonyl)-9H-carbazole-1-carboxamide] are within 1.5-fold of each other in IC50: 1800 nM for the first, 1300 nM for the second.

`Cc1c(NC(=O)c2nccn2C)cccc1-c1ccc(C(N)=O)c2[nH]c3cc(C(O)CO)ccc3c12` (stereo not shown) [Example 78-2] and `Cc1c(NC(=O)c2nccs2)cccc1-c1ccc(C(N)=O)c2[nH]c3cc(N4CCN(C)CC4)ccc3c12` [Example 77-2, N-(3-(1-carbamoyl-7-(4-methylpiperazin-1-yl)-9H-carbazol-4-yl)-2-methylphenyl)thiazole-2-carboxamide] are within 1.5-fold of each other in IC50: 1.6 nM for the first, 1.9 nM for the second.

`Cc1c(NC(=O)c2ccc(F)cc2)cccc1-c1ccc(C(N)=O)c2[nH]c3cc(NC(=O)c4ccc(C#N)cc4)ccc3c12` [Example 57-20] and `Cc1c(NC(=O)c2ccc(F)cc2)cccc1-c1ccc(C(N)=O)c2[nH]c3cc(NC(=O)Cc4ccncc4)ccc3c12` [Example 57-13] are the same in IC50: 15 nM for the first, 15 nM for the second.

Going from `CC(C)(C)OC(=O)n1cc(-c2ccc(C(N)=O)c3[nH]c4c(c23)CCC(C(=O)NC2CCOCC2)C4)cn1` (stereo not shown) [Example 3-116] to `NC(=O)c1ccc(-c2cc(C(=O)O)ccc2F)c2c1[nH]c1cc(C(=O)N3CCOCC3)ccc12` [Example 2-16, 3-(1-carbamoyl-7-(morpholine-4-carbonyl)-9H-carbazol-4-yl)-4-fluorobenzoic acid], the IC50 falls from 1600 nM to 16 nM (100-fold).

Going from `Cc1c(-c2ccc(C(N)=O)c3[nH]c4cc(C(=O)N5CCN(C)CC5)ccc4c23)cccc1N(C(C)C)S(C)(=O)=O` (single isomer, unassigned) [Example 10-3, 4-(3-(N-isopropylmethylsulfonamido)-2-methylphenyl)-7-(4-methylpiperazine-1-carbonyl)-9H-carbazole-1-carboxamide] to `Cc1c(NC(=O)C2(C#N)CC2)cccc1-c1ccc(C(N)=O)c2[nH]c3cc(C(=O)N4CCN(C)CC4)ccc3c12` [Example 5-73, 4-(3-(1-cyanocyclopropanecarboxamido)-2-methylphenyl)-7-(4-methylpiperazine-1-carbonyl)-9H-carbazole-1-carboxamide (prepared as the TFA salt)], the IC50 falls from 4900 nM to 18 nM (270-fold).

`Cc1c(NC(=O)C2(c3ccc(F)cc3)CC2)cccc1-c1ccc(C(N)=O)c2[nH]c3cc(C(=O)N4CCN(C)CC4)ccc3c12` [Example 5-42] and `Cc1c(NC(=O)c2cccnc2)cccc1-c1ccc(C(N)=O)c2[nH]c3cc(C(=O)N4CCN(C)CC4)ccc3c12` [Example 5-7] are within 1.5-fold of each other in IC50: 15 nM for the first, 18 nM for the second.

Compared with `CN1CCN(C(=O)c2ccc3c(c2)[nH]c2c(C(N)=O)ccc(-c4cccc5c4oc4ccccc45)c23)CC1` [Example 3-49], `Cc1c(NC(=O)Nc2ccccc2)cccc1-c1ccc(C(N)=O)c2[nH]c3cc(C(=O)N4CCN(C)CC4)ccc3c12` [Example 8-3, 4-(2-methyl-3-(3-phenylureido)phenyl)-7-(4-methylpiperazine-1-carbonyl)-9H-carbazole-1-carboxamide] is 43-fold lower in IC50: 690 nM for the first, 16 nM for the second. The second is the more potent here.

Compared with `CCNC(=O)c1cc2c(-c3ccc(C(N)=O)c4[nH]c5cc(C(=O)N6CCN(C)CC6)ccc5c34)cccc2[nH]1` [Example 2-24, 4-(2-(ethylcarbamoyl)-1H-indol-4-yl)-7-(4-methylpiperazine-1-carbonyl)-9H-carbazole-1-carboxamide], `CN1CCN(C(=O)c2ccc3[nH]c4c(C(N)=O)ccc(-c5ccccc5F)c4c3c2)CC1` [Example 2-18, 4-(2-fluorophenyl)-6-(4-methylpiperazine-1-carbonyl)-9H-carbazole-1-carboxamide] is 50-fold lower in IC50: 800 nM for the first, 16 nM for the second. The second is the more potent here.

`NC(=O)c1ccc(-c2ccccc2F)c2c1[nH]c1cc(C(=O)N3CCOCC3)ccc12` [Example 3-9, 4-(2-fluorophenyl)-7-(morpholine-4-carbonyl)-9H-carbazole-1-carboxamide] and `Cc1c(Nc2ncnc3cc(F)ccc23)cccc1-c1ccc(C(N)=O)c2[nH]c3cc(N4CCCC4=O)ccc3c12` [Example 79-4] are within 1.5-fold of each other in IC50: 17 nM for the first, 16 nM for the second.

`Cc1ccc2c(c1)C(=O)N(c1cccc(-c3ccc(C(N)=O)c4[nH]c5cc(N6CCCC6=O)ccc5c34)c1C)C2` [Example 66-16] and `Cc1c(-c2ccc(C(N)=O)c3[nH]c4cc(C(O)CO)ccc4c23)cccc1N1Cc2ccc(F)cc2C1=O` (stereo not shown) [Example 70-9] are within 1.5-fold of each other in IC50: 2 nM for the first, 1.5 nM for the second.

In the case of `Cc1c(-c2ccc(C(N)=O)c3[nH]c4cc(C(C)(C)O)ccc4c23)cccc1-n1ccn2c(C)cnc2c1=O` [Example 81-3], the IC50 is reported as 1.9 nM.

— patent US8362065B2, “Carbazole carboxamide compounds useful as kinase inhibitors” (Bristol-Myers Squibb Company, priority 2008, dated 2013)
